“Also recorded” adds a separate entry of the source.
What was measured:
[1] = system: chloroquine phosphate-induced pruritus in mice; design: species or system C57BL/6J mice; conditions: mouse, in vivo
human KOR [2] = biological target: T1, human KOR (Homo sapiens, UniProt P41145); type: cell-based
human KOR [3] = biological target: T1, human KOR; type: binding

Structure (SMILES) | suppression of itch (scratching) response [1] | efficacy in G protein signaling (inhibition of cAMP accumulation) (human KOR [2]) | KOR agonist potency (human KOR [2]) | affinity for the κ-OR (radioligand competition binding, Ki) (human KOR [3])
COC(=O)[C@@H]1C[C@H](OC(C)=O)C(=O)[C@H]2[C@@]1(C)CC[C@H]1C(=O)O[C@H](c3ccoc3)C[C@]21C [SalA, salvinorin A, reference compound] | suppressed the itch response | slightly higher affinity and efficacy |  | 
COC(=O)[C@@H]1C[C@H](OC(C)=O)C(=O)[C@@H]2[C@H]3C[C@@H](c4ccoc4)OC(=O)[C@@H]3CC[C@]21C [20-nor-SalA, 20-nor-salvinorin A] | suppressed the itch response; also recorded: similarly effective to SalA and another conventional agonist (U50,488H) | full agonist | high potency | high affinity

Source: US11512075B2 (priority 2017, dated 2022)
